Assay results from publication PMC9953561, “Five Post-Translational Modification Residues of CmPT2 Play Key Roles in Yeast and Rice” (International Journal of Molecular Sciences, 2023).

Test system: CmPT2 (CmPht1;2)
Settings: labelled compound; H+ co-transporter; whole yeast cells; pH of uptake assay not stated

Km: 65.7 µM
SMILES: O=P(O)(O)O [phosphate]
